Laboratory results taken from patent publication US20240009269A1 (priority 2020, published 2024).
Like-named read-outs stand apart in the source and are kept apart here.

Experiments:
dhBMECs monolayers = experiment: Melittin-induced disruption of dhBMEC monolayers (transwell assay); format: cell-based, human
Method: Induced pluripotent stem cell (iPSC)-derived brain microvascular endothelial cells (dhBMECs) mimic the barrier function of the human BBB. DhBMECs were differentiated as previously reported. The BC1 iPSC line derived from a healthy individual was used for all experiments. After eleven days of differentiation, cells were detached using Accutase (A1110501, Thermo Fisher Scientific), and seeded onto transwells, glass slides, or type I collagen microchannels coated overnight with 50 μg mL^−1 human placental collagen IV (Catalog Number (Cat. No.) C5533, Sigma-Aldrich) and 25 μg mL^−1 fibronectin from human plasma (Cat. No. F1141, Sigma-Aldrich). Cells have previously been characterized for expression of tight junction proteins, efflux pumps, and nutrient transporters as well as measurements of barrier function including transendothelial electrical resistance (TEER) or solute permeability. Here, cells with TEER of at least 1500 Ω cm2 were used for all experiments. After detachment, cells were cultured in BBB induction medium: human endothelial cell serum-free medium (HESFM) (Cat. No. 11111044, Thermo Fisher Scientific) supplemented with 1% human platelet poor derived serum (Cat. No. P2918, Sigma-Aldrich), 1% penicillin-streptomycin (Cat. No. 15140122, Thermo Fisher Scientific), 2 ng mL^−1 bFGF (Cat. No. 233FB025CF, Fisher Scientific), and 10 μM all-trans retinoic acid (Cat. No R2625, Sigma-Aldrich). After 24 hours, cells were further cultured in BBB maintenance medium: HESFM supplemented with 1% human platelet poor derived serum and 1% penicillin-streptomycin. Human cortical neuron HCN-2 cells (CRL-10742) were obtained from ATCC (Manassas, VA, USA). HCN-2 cells were cultured in DMEM (Cat. No. 31600091, Thermo Fisher Scientific), adjusted to contain 1.5 g L^−1 sodium bicarbonate, 4.5 g L^−1 D-glucose, and supplemented with 10% heat-inactivated FBS (Cat. No. F4135, Sigma-Aldrich), following ATCC recommendations.
Corning transwell supports (Cat. No. 3470) were coated with 25 μg mL^−1 fibronectin and 50 μg mL^−1 collagen IV overnight at 37° C. DhBMECs were seeded on transwells in BBB induction medium at 10^6 cells cm^−2. […] On day 2, the TEER for monolayers was measured using EVOM-2 and STX-100 electrode (World Precision Instruments, Sarasota, FL), and monolayers with TEER>1500 Ω cm2 were used for the permeability experiment. […] After the permeability experiment, the TEER across monolayers was measured. Dextran fluorescence in the receiving chamber and in the initial apical solution (Co) was measured using the Synergy H4 plate reader (Biotek Instruments Inc., Winooski, VT) and was converted to dextran concentrations using the dextran-fluorescein standard curves. The apparent permeability (Papp) was calculated from Formula 1 below: […]

[1] = system: human cortical neurons (HCNs, HCN-2 cells)
[2] = Estimated systemic exposure after intra-arterial injection; format: in vivo, mouse

CC[C@H](C)[C@H](NC(=O)CN)C(=O)NCC(=O)N[C@@H](C)C(=O)N[C@H](C(=O)N[C@@H](CC(C)C)C(=O)N[C@@H](CCCCN)C(=O)N[C@H](C(=O)N[C@@H](CC(C)C)C(=O)N[C@H](C(=O)N[C@H](C(=O)NCC(=O)N[C@@H](CC(C)C)C(=O)N1CCC[C@H]1C(=O)N[C@@H](C)C(=O)N[C@@H](CC(C)C)C(=O)N[C@H](C(=O)N[C@@H](CO)C(=O)N[C@@H](Cc1c[nH]c2ccccc12)C(=O)N[C@H](C(=O)N[C@@H](CCCCN)C(=O)N[C@@H](CCCNC(=N)N)C(=O)N[C@@H](CCCCN)C(=O)N[C@@H](CCCNC(=N)N)C(=O)N[C@@H](CCC(N)=O)C(=O)N[C@@H](CCC(N)=O)C(N)=O)[C@@H](C)CC)[C@@H](C)CC)[C@@H](C)O)[C@@H](C)O)C(C)C)C(C)C [melittin]
concentrations for membrane activity (dhBMECs monolayers): 1 to 10 µM | 500 kDa dextran permeability across dhBMECs (dhBMECs monolayers; 5 μM melittin for 90 minutes, transwell): increased | concentration above which disruption is induced in confluent monolayers (dhBMECs monolayers; confluent dhBMEC monolayers): above 1 μM | cell morphology (phase contrast) (dhBMECs monolayers; dhBMECs on glass slides, 5 μM melittin for 90 minutes): cell swelling and detachment | time high viability (≥98%) is maintained ([1]; 0.75 μM melittin): ~23 min | time for which viability is largely unaffected ([1]; 5 μM melittin): about 20 minutes | time high viability (≥98%) is maintained ([1]; 5 μM melittin): ~12 min | time at which the viability reached 50% (τ1/2) ([1]; 5 μM melittin, continuous exposure): ~30 min | time high viability (≥98%) is maintained ([1]; 10 μM melittin): ~12 min | decrease of viability ([1]; dose of 100 μM·minute): < 2% | systemic dose, fold lower than the LD50 ([2]; 3 μM·min melittin, mouse weight of 20 g assumed): ~50 fold | melittin concentration after dilution in the bloodstream ([2]; 3 μM·min, 150 μL injection diluted into 1.2 mL of whole blood (assumed)): 0.33 µM | reduction of melittin concentration upon exiting the brain ([2]; dilution in the bloodstream assumed): ~10 fold
